The values below come from ChEMBL document CHEMBL1127264, “Substituted 1,3-benzodioxole & 1,3-benzodithiole -2-carboxylates and their tetrazole analogs with potent binding affinity to the angiotensin II AT1 receptor” (Bioorg Med Chem Lett, 1994).

In experiment [1] the target is T1, Type-1 angiotensin II receptor (Oryctolagus cuniculus, UniProt P34976).
T1 sequence (P34976 whole entry): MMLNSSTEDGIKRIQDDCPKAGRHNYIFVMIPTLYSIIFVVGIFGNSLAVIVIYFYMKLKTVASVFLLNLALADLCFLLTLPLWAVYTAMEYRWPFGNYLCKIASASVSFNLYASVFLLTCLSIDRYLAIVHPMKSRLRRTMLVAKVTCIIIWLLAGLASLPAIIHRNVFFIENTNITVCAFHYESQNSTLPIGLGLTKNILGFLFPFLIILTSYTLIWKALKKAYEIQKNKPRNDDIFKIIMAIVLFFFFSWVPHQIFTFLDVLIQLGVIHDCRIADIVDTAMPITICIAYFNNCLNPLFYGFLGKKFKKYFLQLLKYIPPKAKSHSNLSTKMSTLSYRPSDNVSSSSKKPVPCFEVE
Briefly: Binding affinity to Angiotensin II receptor, type 1 in rabbit aorta binding assay. It is filed as tissue-based.

The target in experiment [2] is T2, Type-2 angiotensin II receptor (Rattus norvegicus, UniProt P35351).
T2 sequence (P35351 whole entry): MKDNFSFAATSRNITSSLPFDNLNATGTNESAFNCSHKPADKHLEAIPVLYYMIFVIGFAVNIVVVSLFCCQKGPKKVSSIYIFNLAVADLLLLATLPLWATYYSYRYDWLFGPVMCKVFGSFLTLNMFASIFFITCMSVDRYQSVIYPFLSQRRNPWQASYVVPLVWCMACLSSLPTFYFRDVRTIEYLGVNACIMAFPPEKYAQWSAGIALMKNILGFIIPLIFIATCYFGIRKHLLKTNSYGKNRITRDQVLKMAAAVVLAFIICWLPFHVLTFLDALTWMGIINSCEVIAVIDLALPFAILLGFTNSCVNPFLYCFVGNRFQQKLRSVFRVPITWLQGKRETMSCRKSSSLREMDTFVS
In words: Binding affinity to AT2 receptor in rat midbrain binding assay. It is filed as tissue-based.

As for `CCCc1nc2c(C)ccnc2n1Cc1ccc2c(c1)OC(c1ccccc1)(c1nn[nH]n1)O2` (stereo not drawn), the values for the IC50 in experiment [1] and in experiment [2] were 45 nM and 16000 nM, respectively.
With `CCCc1nc2c(C)ccnc2n1Cc1ccc2c(c1)SC(C(=O)O)(c1ccccc1)S2` (stereo not drawn), the IC50 is 34 nM in experiment [1] and 8100 nM in experiment [2].
The like results for `CCCc1nc2c(C)ccnc2n1Cc1ccc2c(c1)OC(C(=O)O)(c1ccccc1)O2` (stereo not drawn) were, in that order, 56 nM and 2800 nM.
The like results for `CCCc1nc2c(C)ccnc2n1Cc1ccc2c(c1)SC(c1ccccc1)(c1nn[nH]n1)S2` (stereo not drawn) were, in that order, 35 nM and 15000 nM.

The term IC50 denotes the concentration that gives 50% inhibition.
